Legend:
Test in all cases: SignalChem radioisotope protein kinase assay
Format in all cases: biochemical
Conditions in all cases: 5 μl of 100 μM stock solution in 25 μl
[1] = molecular target: ABL2 (Homo sapiens, UniProt P42684)
From the text: (§1) The various protein kinase targets to be employed in the kinase profiling assay were cloned, expressed and purified in-house at SignalChem (Richmond, BC, Canada) using proprietary methods. Quality control testing is routinely performed on each of the SignalChem targets to ensure compliance to acceptable standards. Protein substrates employed in the target profiling process were synthesized internally. ^33P-ATP was purchased from PerkinElmer. All other materials were of standard grade. Compound 10 (FIG. 4) was supplied to SignalChem in a powder form. It was reconstituted in DMSO to form a stock solution which was then diluted with 10% DMSO to form a working stock solution (100 μM) that was then profiled against the various protein kinase targets. The assay conditions for the various protein kinase targets were optimized to yield acceptable enzymatic activity. In addition, the assays were optimized to give high signal-to-noise ratio.
(§2) SignalChem uses a radioisotope assay format for profiling evaluation of protein kinase targets. Protein kinase assays were performed in triplicate at ambient temperature for 20-40 min (depending on the target) in a final volume of 25 μl according to the following assay reaction recipe: • Component 1: 5 μl of diluted active protein kinase target (˜10-40 nM final protein concentration in the assay) • Component 2: 5 μl of stock solution of substrate (1-5 μg of peptide or protein substrate) • Component 3: 5 μl of kinase assay buffer or protein kinase activator in kinase assay buffer • Component 4: 5 μl of Compound 10 (100 μM stock solution) or 10% DMSO • Component 5: 5 μl of 33P-ATP (25 μM stock solution, 0.8 μCi)
(§3) The assay was initiated by the addition of ^33P-ATP and the reaction mixture incubated at ambient temperature for 20-40 minutes, depending on the protein kinase target. After the incubation period, the assay was terminated by spotting 10 μl of the reaction mixture onto a Millipore Multiscreen plate. The Millipore Multiscreen plate was washed 3 times for approximately 15 minutes each in a 1% phosphoric acid solution. The radioactivity on the P81 plate was counted in the presence of scintillation fluid in a Trilux scintillation counter. Blank control, which included all the assay components except the addition of the appropriate substrate (replaced with equal volume of assay dilution buffer), was set up for each protein kinase target. The corrected activity for each protein kinase target was determined by removing the blank control value.

[2] = molecular target: ALK4 (Homo sapiens, UniProt P36896)
From the text: as §1, §2, §3

[3] = molecular target: AURORA B (Homo sapiens, UniProt Q96GD4)
From the text: as §1, §2, §3

[4] = molecular target: BRAF (Homo sapiens, UniProt P15056)
From the text: as §1, §2, §3

[5] = molecular target: ERK1 (Homo sapiens, UniProt P27361)
From the text: as §1, §2, §3

[6] = molecular target: ERK2 (Homo sapiens, UniProt P28482)
From the text: as §1, §2, §3

[7] = molecular target: FAK (Homo sapiens, UniProt Q05397)
From the text: as §1, §2, §3

[8] = molecular target: FER (Homo sapiens, UniProt P16591)
From the text: as §1, §2, §3

[9] = molecular target: FMS (Homo sapiens, UniProt P07333)
From the text: as §1, §2, §3

[10] = molecular target: FRK (Homo sapiens, UniProt P42685)
From the text: as §1, §2, §3

[11] = molecular target: KDR (Homo sapiens, UniProt P35968)
From the text: as §1, §2, §3

[12] = molecular target: LCK (Homo sapiens, UniProt P06239)
From the text: as §1, §2, §3

[13] = molecular target: MARK1 (Homo sapiens, UniProt Q9P0L2)
From the text: as §1, §2, §3

[14] = molecular target: MEK1 (Homo sapiens, UniProt Q02750)
From the text: as §1, §2, §3

[15] = molecular target: MST4 (Homo sapiens, UniProt Q9P289)
From the text: as §1, §2, §3

[16] = molecular target: P38γ (Homo sapiens, UniProt P53778)
From the text: as §1, §2, §3

[17] = molecular target: PAK7 (Homo sapiens, UniProt Q9P286)
From the text: as §1, §2, §3

[18] = molecular target: PDGFRα (Homo sapiens, UniProt P16234)
From the text: as §1, §2, §3

[19] = molecular target: PIM2 (Homo sapiens, UniProt Q9P1W9)
From the text: as §1, §2, §3

[20] = molecular target: T1, RAF1(EE) (Homo sapiens, UniProt P04049, Y340E/Y341E)
T1 construct: purchased SignalChem
From the text: as §1, §2, §3

[21] = molecular target: T2, RSK1 (Homo sapiens, UniProt Q15418)
T2 construct: purchased SignalChem
From the text: as §1, §2, §3

[22] = molecular target: T3, RSK3 (Homo sapiens, UniProt Q15349)
T3 construct: purchased SignalChem
From the text: as §1, §2, §3

[23] = molecular target: T4, SGK1 (Homo sapiens, UniProt O00141)
T4 construct: purchased SignalChem
From the text: as §1, §2, §3

[24] = molecular target: T5, SRC (Homo sapiens, UniProt P12931)
T5 construct: purchased SignalChem
From the text: as §1, §2, §3

[25] = molecular target: T6, TRKA (Homo sapiens, UniProt P04629)
T6 construct: purchased SignalChem
From the text: as §1, §2, §3

[26] = molecular target: c-KIT (Homo sapiens, UniProt P10721)
From the text: as §1, §2, §3

[27] = molecular target: p38α (Homo sapiens, UniProt Q16539)
From the text: as §1, §2, §3

[28] = molecular target: p38δ (Homo sapiens, UniProt O15264)
From the text: as §1, §2, §3

[29] = molecular target: p70S6K (Homo sapiens, UniProt P23443)
From the text: as §1, §2, §3

Sequence of p38α (Q16539 whole entry): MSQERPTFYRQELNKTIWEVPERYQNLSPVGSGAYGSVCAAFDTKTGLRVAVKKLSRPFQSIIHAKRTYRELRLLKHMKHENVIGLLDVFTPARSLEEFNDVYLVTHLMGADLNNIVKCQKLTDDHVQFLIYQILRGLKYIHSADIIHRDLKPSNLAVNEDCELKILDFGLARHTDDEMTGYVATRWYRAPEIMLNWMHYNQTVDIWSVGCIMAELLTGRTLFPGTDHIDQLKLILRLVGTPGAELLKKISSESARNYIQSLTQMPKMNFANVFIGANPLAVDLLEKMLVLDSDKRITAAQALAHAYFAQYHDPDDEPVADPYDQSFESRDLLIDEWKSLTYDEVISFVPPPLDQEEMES
Sequence of ABL2 (P42684 whole entry, species assumed): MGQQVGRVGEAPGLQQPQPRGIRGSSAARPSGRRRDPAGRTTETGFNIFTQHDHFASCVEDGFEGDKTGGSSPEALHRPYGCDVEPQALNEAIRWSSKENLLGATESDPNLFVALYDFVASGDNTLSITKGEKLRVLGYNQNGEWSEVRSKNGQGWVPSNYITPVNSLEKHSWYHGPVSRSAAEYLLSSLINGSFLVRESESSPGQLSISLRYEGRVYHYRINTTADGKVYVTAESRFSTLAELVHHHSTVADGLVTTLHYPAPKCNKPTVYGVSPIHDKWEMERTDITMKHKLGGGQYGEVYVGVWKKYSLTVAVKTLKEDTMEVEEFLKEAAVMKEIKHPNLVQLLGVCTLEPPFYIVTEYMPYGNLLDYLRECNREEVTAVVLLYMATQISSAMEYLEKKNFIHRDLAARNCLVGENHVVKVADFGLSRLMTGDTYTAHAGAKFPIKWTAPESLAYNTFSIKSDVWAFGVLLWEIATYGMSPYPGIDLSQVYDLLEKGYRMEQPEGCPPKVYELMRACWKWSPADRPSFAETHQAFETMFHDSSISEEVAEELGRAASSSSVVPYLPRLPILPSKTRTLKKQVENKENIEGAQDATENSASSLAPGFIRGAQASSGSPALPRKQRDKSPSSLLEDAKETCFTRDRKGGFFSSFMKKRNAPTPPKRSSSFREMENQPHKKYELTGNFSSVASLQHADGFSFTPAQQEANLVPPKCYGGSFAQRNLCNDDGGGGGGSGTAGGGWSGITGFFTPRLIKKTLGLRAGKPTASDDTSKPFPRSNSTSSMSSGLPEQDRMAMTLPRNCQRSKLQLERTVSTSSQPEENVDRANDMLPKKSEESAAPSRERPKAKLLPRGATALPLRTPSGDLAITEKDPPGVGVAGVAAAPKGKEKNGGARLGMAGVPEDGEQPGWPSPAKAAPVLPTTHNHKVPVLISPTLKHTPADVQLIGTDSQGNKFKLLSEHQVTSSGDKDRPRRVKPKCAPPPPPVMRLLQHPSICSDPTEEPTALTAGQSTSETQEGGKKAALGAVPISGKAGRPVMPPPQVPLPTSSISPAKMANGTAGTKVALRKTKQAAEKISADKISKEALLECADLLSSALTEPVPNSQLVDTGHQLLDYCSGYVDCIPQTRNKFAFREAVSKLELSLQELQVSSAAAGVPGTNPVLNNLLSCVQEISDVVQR
Sequence of MEK1 (Q02750 whole entry, species assumed): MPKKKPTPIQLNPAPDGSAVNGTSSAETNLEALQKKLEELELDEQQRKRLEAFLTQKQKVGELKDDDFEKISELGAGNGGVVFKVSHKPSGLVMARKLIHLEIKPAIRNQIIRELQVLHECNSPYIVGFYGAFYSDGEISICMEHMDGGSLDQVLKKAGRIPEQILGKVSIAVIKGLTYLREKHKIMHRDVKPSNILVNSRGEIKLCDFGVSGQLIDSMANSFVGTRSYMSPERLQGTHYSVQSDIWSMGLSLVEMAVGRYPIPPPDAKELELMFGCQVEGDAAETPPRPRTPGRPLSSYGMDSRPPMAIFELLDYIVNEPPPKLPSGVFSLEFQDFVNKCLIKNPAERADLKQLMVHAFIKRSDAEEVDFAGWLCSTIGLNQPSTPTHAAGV
Sequence of ALK4 (P36896 24-505, species assumed): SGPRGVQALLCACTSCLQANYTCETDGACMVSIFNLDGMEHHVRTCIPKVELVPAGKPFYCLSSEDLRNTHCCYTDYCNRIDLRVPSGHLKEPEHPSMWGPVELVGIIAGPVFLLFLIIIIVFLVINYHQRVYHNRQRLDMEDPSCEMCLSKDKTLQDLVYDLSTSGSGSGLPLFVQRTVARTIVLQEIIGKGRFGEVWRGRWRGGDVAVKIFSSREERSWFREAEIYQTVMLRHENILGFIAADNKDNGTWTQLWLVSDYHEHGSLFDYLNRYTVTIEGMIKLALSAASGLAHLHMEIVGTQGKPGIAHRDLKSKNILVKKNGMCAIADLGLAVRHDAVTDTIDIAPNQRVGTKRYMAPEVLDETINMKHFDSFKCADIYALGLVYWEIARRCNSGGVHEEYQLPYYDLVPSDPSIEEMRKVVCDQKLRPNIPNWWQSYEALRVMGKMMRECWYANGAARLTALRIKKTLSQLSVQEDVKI
Sequence of PDGFRα (P16234 24-1089, species assumed): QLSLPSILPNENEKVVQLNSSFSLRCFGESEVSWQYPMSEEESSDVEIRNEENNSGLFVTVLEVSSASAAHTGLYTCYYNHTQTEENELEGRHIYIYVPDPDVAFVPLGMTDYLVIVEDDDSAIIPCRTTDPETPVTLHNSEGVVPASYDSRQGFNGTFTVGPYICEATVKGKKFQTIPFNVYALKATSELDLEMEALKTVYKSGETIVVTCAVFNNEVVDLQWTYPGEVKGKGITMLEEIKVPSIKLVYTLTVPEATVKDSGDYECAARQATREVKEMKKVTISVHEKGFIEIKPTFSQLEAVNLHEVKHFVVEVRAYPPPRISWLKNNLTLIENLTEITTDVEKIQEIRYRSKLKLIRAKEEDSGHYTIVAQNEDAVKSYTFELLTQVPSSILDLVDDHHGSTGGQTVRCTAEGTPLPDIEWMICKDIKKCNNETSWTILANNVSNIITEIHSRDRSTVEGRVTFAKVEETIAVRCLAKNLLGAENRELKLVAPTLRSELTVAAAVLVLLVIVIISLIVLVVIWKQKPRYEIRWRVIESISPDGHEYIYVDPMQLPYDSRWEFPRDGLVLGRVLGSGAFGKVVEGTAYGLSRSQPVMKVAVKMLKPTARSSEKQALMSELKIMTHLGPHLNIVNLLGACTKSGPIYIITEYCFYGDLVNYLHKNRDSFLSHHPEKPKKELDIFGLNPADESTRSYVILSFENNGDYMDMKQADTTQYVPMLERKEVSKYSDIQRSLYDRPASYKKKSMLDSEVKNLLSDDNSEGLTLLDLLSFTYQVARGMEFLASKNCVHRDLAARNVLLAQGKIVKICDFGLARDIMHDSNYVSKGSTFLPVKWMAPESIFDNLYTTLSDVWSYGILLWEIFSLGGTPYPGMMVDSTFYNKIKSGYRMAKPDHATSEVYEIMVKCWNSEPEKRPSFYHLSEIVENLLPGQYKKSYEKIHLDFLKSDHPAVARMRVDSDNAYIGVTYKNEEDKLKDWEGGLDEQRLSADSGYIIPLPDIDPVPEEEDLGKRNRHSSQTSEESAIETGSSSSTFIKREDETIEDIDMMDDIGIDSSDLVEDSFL
T6 sequence (P04629 33-796, species assumed): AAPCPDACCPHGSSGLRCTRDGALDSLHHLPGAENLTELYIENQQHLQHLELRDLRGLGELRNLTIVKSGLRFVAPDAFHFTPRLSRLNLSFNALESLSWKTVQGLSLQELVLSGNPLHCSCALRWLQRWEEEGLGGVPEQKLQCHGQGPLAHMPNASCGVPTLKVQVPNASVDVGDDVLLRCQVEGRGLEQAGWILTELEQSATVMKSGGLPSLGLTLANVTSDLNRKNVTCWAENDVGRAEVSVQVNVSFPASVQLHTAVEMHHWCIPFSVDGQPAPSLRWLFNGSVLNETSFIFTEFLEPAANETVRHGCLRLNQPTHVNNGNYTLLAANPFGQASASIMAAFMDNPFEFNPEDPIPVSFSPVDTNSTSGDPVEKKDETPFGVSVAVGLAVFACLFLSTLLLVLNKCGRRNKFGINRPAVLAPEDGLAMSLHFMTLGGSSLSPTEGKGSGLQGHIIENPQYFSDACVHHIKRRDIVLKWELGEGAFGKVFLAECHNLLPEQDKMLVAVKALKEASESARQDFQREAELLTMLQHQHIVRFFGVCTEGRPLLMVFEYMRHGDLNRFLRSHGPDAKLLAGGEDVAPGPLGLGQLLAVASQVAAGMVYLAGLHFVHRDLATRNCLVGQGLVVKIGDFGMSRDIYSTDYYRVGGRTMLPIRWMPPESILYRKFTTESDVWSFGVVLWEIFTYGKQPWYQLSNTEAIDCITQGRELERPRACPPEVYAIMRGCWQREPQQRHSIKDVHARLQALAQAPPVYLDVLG
Sequence of FRK (P42685 whole entry, species assumed): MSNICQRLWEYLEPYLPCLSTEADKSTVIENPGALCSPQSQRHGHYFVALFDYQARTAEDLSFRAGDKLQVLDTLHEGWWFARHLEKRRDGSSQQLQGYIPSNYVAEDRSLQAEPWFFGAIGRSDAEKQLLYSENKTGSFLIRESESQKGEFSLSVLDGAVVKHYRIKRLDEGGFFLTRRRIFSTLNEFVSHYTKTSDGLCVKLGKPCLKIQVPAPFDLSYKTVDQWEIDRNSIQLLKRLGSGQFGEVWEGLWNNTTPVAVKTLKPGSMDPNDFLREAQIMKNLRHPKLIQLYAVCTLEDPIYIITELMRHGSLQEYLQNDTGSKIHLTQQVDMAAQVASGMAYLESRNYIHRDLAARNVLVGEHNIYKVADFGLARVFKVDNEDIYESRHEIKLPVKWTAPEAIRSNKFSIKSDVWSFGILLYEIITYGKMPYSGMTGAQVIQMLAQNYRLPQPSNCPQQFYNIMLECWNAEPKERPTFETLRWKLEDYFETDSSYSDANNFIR

Compound: CCOC(=O)C[C@@H]1C(O[Si](C)(C)C(C)(C)C)[C@H](n2cnc3c(NC(=O)Nc4ccccc4)ncnc32)O[C@@H]1CNC(=O)NC (some centres unmarked) [Compound 10]
- % Activity Change [1]: 8%
- % Activity Change [2]: 2%
- % Activity Change [3]: 4%
- % Activity Change [4]: 1%
- % Activity Change [5]: 6%
- % Activity Change [6]: −4%
- % Activity Change [7]: −3%
- % Activity Change [8]: −3%
- % Activity Change [9]: −17%
- % Activity Change [10]: 24%
- % Activity Change [11]: 2%
- % Activity Change [12]: 30%
- % Activity Change [13]: 5%
- % Activity Change [14]: 8%
- % Activity Change [15]: 47%
- % Activity Change [16]: 14%
- % Activity Change [17]: 21%
- % Activity Change [18]: −2%
- % Activity Change [19]: 18%
- % Activity Change [20]: 0%
- % Activity Change [21]: 4%
- % Activity Change [22]: 10%
- % Activity Change [23]: 36%
- % Activity Change [24]: −2%
- % Activity Change [25]: −6%
- % Activity Change [26]: −6%
- % Activity Change [27]: 9%
- % Activity Change [28]: 5%
- % Activity Change [29]: −1%
